In the NIST ThermoML archive (doi:10.1021/je500088z):
Numbers after ± are expanded uncertainties.

Assay: excess molar enthalpy (molar enthalpy of mixing); xn = mol fraction of the nth substance listed
Conditions: 308.15 K, 101 kPa, Liquid, Calvet calorimetry

| Structure (SMILES) | excess molar enthalpy (x2 = 0.113) [kcal/mol] | excess molar enthalpy (x2 = 0.2) [kcal/mol] | excess molar enthalpy (x2 = 0.297) [kcal/mol] | excess molar enthalpy (x2 = 0.401) [kcal/mol] | excess molar enthalpy (x2 = 0.515) [kcal/mol] | excess molar enthalpy (x2 = 0.6) [kcal/mol] | excess molar enthalpy (x2 = 0.703) [kcal/mol] | excess molar enthalpy (x2 = 0.825) [kcal/mol] | excess molar enthalpy (x2 = 0.9) [kcal/mol] | excess molar enthalpy (x2 = 0.126) [kcal/mol] | excess molar enthalpy (x2 = 0.33) [kcal/mol] | excess molar enthalpy (x2 = 0.435) [kcal/mol] | excess molar enthalpy (x2 = 0.499) [kcal/mol] | excess molar enthalpy (x2 = 0.601) [kcal/mol] | excess molar enthalpy (x2 = 0.701) [kcal/mol] | excess molar enthalpy (x2 = 0.802) [kcal/mol] | excess molar enthalpy (x2 = 0.901) [kcal/mol] |
| --- | --- | --- | --- | --- | --- | --- | --- | --- | --- | --- | --- | --- | --- | --- | --- | --- | --- |
| C1CCNCC1 [piperidine] + C1COCCO1 | 0.0853 ± 0.00263 | 0.131 ± 0.00406 | 0.167 ± 0.00526 | 0.188 ± 0.00574 | 0.195 ± 0.00598 | 0.186 ± 0.00574 | 0.159 ± 0.00502 | 0.108 ± 0.00335 | 0.0655 ± 0.00215 |  |  |  |  |  |  |  |  |
| C1CCNCC1 [piperidine] + C1COCCN1 |  | 0.0375 ± 0.0012 |  |  |  |  |  |  |  | 0.0251 ± 0.000956 | 0.0531 ± 0.00167 | 0.0605 ± 0.00191 | 0.0631 ± 0.00191 | 0.0626 ± 0.00191 | 0.0564 ± 0.00167 | 0.0447 ± 0.00143 | 0.0261 ± 0.000956 |
